# Reference: patent publication US5854010A, “Bioassay for detecting 2,3,7,8-tetrachlorodibenzo-para-dioxin and TCDD-like compounds and novel recombinant cell line useful therefor” (priority 1997, dated 1998)
# Experiments:
# HG2L1.1c3 cells = experiment: TCDD-inducible luciferase activity, stably transfected clonal cell line; type: cell-based, human; details: 24 h
# Description: Using the stabilized luciferase assay system (purchased from Promega), luciferase activity in an aliquot of the cleared lysed cell supernatant (20 μl) was determined by mixing it with 100 µl of luciferase assay reagent (purchased from Promega) and measuring the resulting luminescence in a Turner Luminometer or Dynatech ML3000 microplate luminometer (light output was integrated over 1 minute after a delay time of 30 seconds).
# Using a microplate adaptation of the method reported by Bradford in "A Rapid Sensitive Method for the Quantitation of Microgram Quantities of Protein Utilizing the Principle of Protein-Dye Binding", Anal. Biochem., […], pp. 248-254 (1976), luciferase activity was standardized to the protein concentration of the supernatant (with bovine serum albumin as the protein standard). Because of instrument differences in luminescence measurement and data output, luciferase activity was determined as relative light units (RLU) per microgram of protein, which was converted to milligram of protein as reported in the Tables below. […]
# More particularly, isolated clones were grown until confluent, and then incubated in the absence or presence of TCDD (1 nM solubilized in DMSO) for 24 hours. After the incubation, luciferase activity was determined as described above.
# H1L1.1 cells [1] = experiment: Time course of luciferase induction by TCDD (FIG. 2); type: cell-based, mouse; details: 1 nM TCDD in DMSO
# Description: Specifically, with respect to the graph of FIG. 2, the time course of luciferase induction by TCDD was examined in order to determine the optimal time period for measurement of luciferase activity in the H1L1.1 cells. In these experiments, the cells were treated with 1 nM of TCDD solubilized in DMSO or with only DMSO. The luciferase activity was determined as described above at various times up to 32 hours post exposure. Values represent the mean ± the standard evaluation of at least triplicate determinations.
# [2] = tested on: Rat H4IIE cells, CYP1A1/EROD; details: Table 3 comparison, Kennedy et al., cited from earlier work
# H1L1.1 cells [3] = experiment: Dose response of luciferase induction, 24 h (FIGS. 3-6, Table 3); type: cell-based, mouse; details: for Induced luciferase activity, TCDD reference: 1 nM TCDD in DMSO
# Description: The graph of FIG. 3 illustrates the dose dependence of luciferase induction in the mouse H1L1.1 cells measured following […] of the cells to increasing concentrations of TCDD or other toxic compounds (which others are discussed in more detail below).
# More particularly, the stable cell clones for the mouse H1L1.1 cells (about 90% confluent) were plated into six-well microplates (purchased from Corning) and incubated for 24 hours with the indicated concentration of the particular toxin solubilized in DMSO. Then, the cells were lysed with 100 μl of lysis buffer and luciferase activity was determined as described above. Values represent the mean ± the standard evaluation of at least triplicate determinations.
# As set out in Table 3, the responsiveness and sensitivity of the mouse H1L1.1 cells was compared to the responsiveness and sensitivity of certain other published PCDH cell bioassay systems. The other systems were a recombinant HepG2 (101L) cell line that induces firefly luciferase (see, Postlind et al., supra), a recombinant Hepa1 (T13) cell line that induces PAP activity (see El-Fouly et al., supra), and a rat H4IIE cell line that induces EROD activity (see, Kennedy et al., supra). The ED50 values were calculated by probit analysis of the dose-response data.
# As set out in the graphs of FIGS. 3-6, since one use of the stably transfected mouse H1L1.1 cell lines is for detection and relative quantitative analysis of TCDD and various dioxin-like compounds (i.e., AhR ligands), the ability of various compounds besides TCDD to induce luciferase activity in the mouse H1L1.1 cells was examined. The experiments performed to determine the dose-response curves for the toxins other than TCDD set out in the graphs of FIGS. 3-6 were performed in essentially the same manner as the experiments described above to determine the dose response curve of TCDD set out in the graph of FIG. 3.
# Specifically, with respect to the data illustrated in the graph of FIG. 3, cells were incubated with increasing concentrations of test chemical and luciferase activity determined after 24 hours.
# It should be noted that the low numerical values of luciferase activity from induction by various PCBs reported in FIGS. 4 and 5, compared to the values reported in the other figures, are not due to actual low levels of luciferase induction, but to the fact that the detection of luminescence in these experiments was performed using a different instrument from that used in the other experiments.
# However, the relative magnitude of luciferase induction by the mono-ortho-PCBs (FIG. 4) and the AROCLORS (FIG. 5) was established by directly comparing the resulting activity to that produced by a maximally inducing dose of TCDD (1 nM solubilized in DMSO) measured in the same instrument.
# mouse H1L1.1 cells = experiment: Antagonism of TCDD luciferase induction by 2,2',5,5'-TCB (FIG. 7); type: cell-based; details: TCDD 5 nM, 24 h
# Description: (§1) The bar graph of FIG. 7 illustrates that 2,2',5,5'-TCB antagonizes induction of luciferase activity by TCDD in a species-specific manner, and thus, 2,2',5,5'-TCB is not a TCDD-like compound as defined herein. In particular, six-well plates containing the indicated cell lines were incubated with DMSO (control), with TCDD (5 nM), with 2,2',5,5'-TCB (25 μM), or with both TCDD (5 nM) and 2,2',5,5'-TCB (25 μM) for 24 hours. Luciferase activity in cell lysates was determined as described above. Values represent the mean ± the standard evaluation of at least triplicate determinations.
# rat H4L1.1c4 cells = experiment: as above; type: cell-based; details: TCDD 5 nM, 24 h
# Description: as §1
# [4] = tested on: guinea pig G16L1.1c8 cells; experiment: as above; type: cell-based; details: TCDD 5 nM, 24 h
# Description: as §1
# human HG2L1.1c3 cells = experiment: as above; type: cell-based; details: TCDD 5 nM, 24 h
# Description: as §1
smiles,measurement,setting,value
"Clc1cc2c(cc1Cl)Oc1cc(Cl)c(Cl)cc1O2 [TCDD, 2,3,7,8-tetrachlorodibenzo-para-dioxin]",fold induction,"HG2L1.1c3 cells; Homo sapiens, TCDD 1 nM vs DMSO",29
same,"Luciferase activity, TCDD in DMSO","HG2L1.1c3 cells; TCDD 1 nM, mean ± SD of triplicate assays",25.04 ± 1.88 RLU/mg protein
same,Time at which TCDD-inducible luciferase activity was detectable,H1L1.1 cells [1],2 h
same,Time by which luciferase activity decreased to a stable activity,H1L1.1 cells [1],≤ 12 h
same,Time of peak TCDD-inducible luciferase activity,H1L1.1 cells [1],about 4 hours
same,MDL (minimal detection level),[2],10 pM
same,EC50,[2]; read-out: ED50 (the source's name),100 pM
same,"Induced luciferase activity, TCDD reference",H1L1.1 cells [3]; instrument of FIG. 4,2.25±0.6
same,"Induced luciferase activity, TCDD reference",H1L1.1 cells [3]; instrument of FIG. 5,0.95±0.07
same,EC50,"H1L1.1 cells [3]; Mus musculus, 24 h, FIG. 3",~20 pM
same,fold induction at 0.001 µM,"H1L1.1 cells [3]; Mus musculus, by 1.0 nM TCDD, 24 h, FIG. 3, read-out: Maximal induction of luciferase activity",80
same,Dose dependence of luciferase induction,"H1L1.1 cells [3]; TCDD, 24 h, FIG. 3",dose dependent
same,Luciferase induction by TCDD alone,mouse H1L1.1 cells,induced luciferase activity
same,Luciferase induction by TCDD alone,rat H4L1.1c4 cells,induced luciferase activity
same,Luciferase induction by TCDD alone,[4],induced luciferase activity
same,Luciferase induction by TCDD alone,human HG2L1.1c3 cells,induced luciferase activity
